C=C(C)[C@@H]1CC[C@]2(C(=O)O)CC[C@]3(C)[C@H](CC[C@@H]4[C@@]5(C)CCC(=O)C(C)(C)[C@@H]5CC[C@]43C)[C@@H]12
solubility (mole fraction)
Details	278.15 K	283.15 K	288.15 K	293.15 K	298.15 K	303.15 K	308.15 K	313.15 K	318.15 K
in 2-methoxyethanol	0.00863	0.00923	0.00969	0.0103	0.0108	0.0117	0.0127	0.0137	0.0149
in 2-propoxyethanol	0.0239	0.0248	0.025	0.0264	0.0274	0.0288	0.03	0.0314	0.0331
in ethanol	0.00376	0.00399	0.00454	0.00503	0.00566	0.00617	0.00693	0.00757	0.00848
in isopropanol	0.00531	0.00564	0.00651	0.0075	0.00865	0.00968	0.0114	0.0138	0.0158
in methanol	0.00129	0.00136	0.00146	0.00157	0.00171	0.00192	0.00211	0.00234	0.0027
in n-propanol	0.00728	0.00762	0.00827	0.00914	0.0104	0.0116	0.0131	0.0144	0.0163

From BigSolDB 2.1
